The source of these data is patent US9108930B2, “N1- and N2-carbamoyl-1,2,3-triazole serine hydrolase inhibitors and methods” (The Scripps Research Institute, priority 2011, dated 2015).

Where only a bound is given, the exact number is not on record here.

The subject of one assay is peritoneal macrophages. Nature of the assay: Metabolomics of thioglycolate-elicited peritoneal macrophages from treated mice. The following applies: 5 mg/kg, 4 hours, i.p. It is filed as in vivo, mouse. The method, then:
Mice were treated with KT109, KT172 or KT195 (5 mg/kg, 4 hours, i.p.) to evaluate whether blockade of DAGLB in peritoneal macrophages would result in metabolic effects similar to those observed in Neuro2A cells. Thioglycolate-elicited peritoneal macrophages were harvested, and the cells were subjected to metabolomics studies. […] All the metabolic effects observed in pharmacological studies were recapitulated using Daglb^−/− mice, providing genetic evidence that the changes were indeed DAGLB-mediated.
(§1) Metabolites were quantified by either selected reaction monitoring (SRM) of each metabolite using an Agilent G6410B Triple-Quad instrument or untargeted metabolomic analysis (substrate assays) using an Agilent 1100 series LC-MSD SL instrument. […] For analysis of diacylglycerols (DAGs) a Luna C5 column (50 mm×4.60 mm with 5 μm diameter particles) from Phenomenex was used. Mobile phase A was made of 95:5 v/v H2O:MeOH, and mobile phase B was composed of 60:35:5 v/v/v i-PrOH:MeOH:H2O. Ammonium hydroxide (0.1%) and formic acid (0.1%) was included to assist in ion formation in negative and positive ionization modes, respectively. For analysis of DAGs, 5 mM ammonium formate was also used in addition to 0.1% formic acid to assist in positive ionization and NH4+ adduct formation. For metabolite measurements, cells were resuspended in 1 mL of a 1% NaCl solution and added to 3 mL of a 2:1 v/v CHCl3:MeOH doped with 1 nmol of the following internal standards: d5-2-arachidonoylglycerol (2-AG), d8-arachidonic acid (AA), and d8-1-stearoyl-2-arachidonoylglycerol (SAG). The mixture was vortexed and then centrifuged (1,400×g, 3 min). The organic layer was removed, CHCl3 was added until the final volume was again 4 ml, and the extraction was repeated. The combined organic extracts were dried under a stream of N2 and resolubilized in 2:1 v/v CHCl3:MeOH (120 μl). 30 μL of resolubilized lipids were injected for positive mode (MAGs and DAGs) and negative mode (free fatty acids and eicosanoids) measurements.
(§2) The following parameters (MS) were used to measure the indicated metabolites by SRM (precursor ion, product ion, collision energy in V, polarity): C20:4 MAG or 2-AG (379, 287, 8, positive), d5-2-AG (384, 287, 5, positive), C18:0/C20:4 DAG or SAG (662, 341, 15, positive), d8-SAG (671, 671, 0, positive), C18:1/C20:4 DAG (660, 341, 15, positive), C16:0/C20:4 DAG (634, 341, 15, positive), C14:0/C20:4 DAG (606, 341, 15, positive), arachidonic acid or AA (303, 303, 0, negative), d8-AA (311, 267, 5, negative), PGE2 (351, 271, 10, negative), and PGD2 (351, 271, 10, negative). MS analysis was performed with an electrospray ionization source with the following parameters: drying gas temperature=350° C., drying gas flow rate=11 L/min, and the nebulizer pressure=35 psi. Prostaglandin SRM parameters were based on previously reported methods and transitions. Metabolites targeted by SRM were quantified by measuring the area under the peak in comparison with the internal standards. For metabolites where isotopic internal standards were not used, external standard curves with the internal standard versus metabolite standard were generated. In DAGL substrate assays, formation of the hydrolysis product, 2-AG was followed by measuring the area under the peak for 2-AG in comparison to the 1-monopentadecanoin standard ion.

In assay [1] the target is T1, DAGLB (Mus musculus, UniProt Q91WC9).
T1 sequence (Q91WC9 1-669): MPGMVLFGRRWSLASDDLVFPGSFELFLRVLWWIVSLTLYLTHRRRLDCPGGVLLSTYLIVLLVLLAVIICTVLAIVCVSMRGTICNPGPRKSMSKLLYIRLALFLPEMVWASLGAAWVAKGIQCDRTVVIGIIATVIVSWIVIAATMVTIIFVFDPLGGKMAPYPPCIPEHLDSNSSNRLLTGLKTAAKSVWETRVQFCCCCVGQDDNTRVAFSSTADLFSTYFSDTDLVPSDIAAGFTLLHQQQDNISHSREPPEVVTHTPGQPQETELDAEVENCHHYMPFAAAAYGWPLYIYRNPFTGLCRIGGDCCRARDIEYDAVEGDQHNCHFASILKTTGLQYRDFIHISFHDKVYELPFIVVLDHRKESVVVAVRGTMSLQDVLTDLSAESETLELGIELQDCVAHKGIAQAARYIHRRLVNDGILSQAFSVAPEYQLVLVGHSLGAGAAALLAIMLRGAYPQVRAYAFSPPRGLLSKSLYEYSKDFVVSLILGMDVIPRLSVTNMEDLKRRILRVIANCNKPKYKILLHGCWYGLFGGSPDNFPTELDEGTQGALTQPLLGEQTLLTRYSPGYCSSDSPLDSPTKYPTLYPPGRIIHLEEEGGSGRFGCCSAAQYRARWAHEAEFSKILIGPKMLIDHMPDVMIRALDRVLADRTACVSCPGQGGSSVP
Put plainly: In vivo DAGLB inactivation in peritoneal macrophages, gel-based competitive ABPP using HT01. More on the design: from tissue; host or cells: thioglycolate-elicited peritoneal macrophages of treated mice. The following applies: for dose (as low as) giving complete inactivation of DAGLB in peritoneal macrophages: about 4 hours, doses about 10 to about 0.1 mg/kg.

In assay [2] the target is T1, DAGLB. Put plainly: In situ inhibition in Neuro2A cells, competitive ABPP with HT-01. Format: cell-based. More on the design: from tissue; host or cells: thioglycolate-elicited peritoneal macrophages of treated mice. The note with it: 4 hours. On the procedure: For gel-based competitive ABPP studies, proteomes from cells treated in situ with inhibitor for 4 h at 37° C. at the indicated concentrations (n=3) were labeled with HT-01 (1 μM) for 30 min at 37° C. After quenching, SDS-PAGE, and in-gel visualization, the percentage of enzyme activity remaining was determined by measuring the integrated optical intensity of the bands using IMAGER® software. For LC-MS substrate assays, the percentage of enzyme activity remaining was determined by comparing the specific activity (amount of 2-AG formed per min per mg of proteome) of inhibitor with DMSO-treated samples. The IC50 values were determined from a dose-response curve generated using GraphPad PRISM® software.

The subject of assay [3] is peritoneal macrophages of Pla2g4a-/- mice. Put plainly: Metabolomics of macrophages from treated Pla2g4a-/- mice. It is filed as in vivo, mouse. The following applies: 5 mg/kg, 4 hours, i.p. On the procedure: Pla2g4a^−/− mice were treated with KT109 or KT195 (5 mg/kg, 4 hours, i.p.), thioglycolate-elicited macrophages were harvested, and then the macrophages were subjected to metabolomics analysis. The cellular levels of PGE2 and PGD2 were measured.
as §1
as §2, with “For metabolites where isotopic internal standards were not used, external standard curves with the internal standard versus metabolite standard were generated. In DAGL substrate assays, formation of the hydrolysis product, 2-AG was followed by measuring the area under the peak for 2-AG in comparison to the 1-monopentadecanoin standard ion.” left out

The test system of assay [4] is serine hydrolases in mouse brain proteome. Nature of the assay: Selectivity profile by competitive ABPP (mouse brain proteome), DAGL series. Format: biochemical.
Assay [5] concerns serine hydrolases in the peritoneal macrophage proteome. Put plainly: ABPP-MudPIT of peritoneal macrophages from treated mice, off-targets. The following applies: mouse, in vivo.

As usually defined, the inhibition is the share of the control response that was lost under treatment. By IC50 is commonly meant the concentration needed to halve the response being measured. Read a high IC50 as weaker potency in that assay. As to `O=C(N1CCCCC1Cc1ccccc1)n1cc(-c2ccc(-c3ccccc3)cc2)nn1` (centres unmarked) [KT109], in the assay with peritoneal macrophages, the “change in 2-AG” value was “Dramatic decreases in 2-AG”; the “change in SAG” value was “significant increases in SAG”; the “change in cellular AA, PGE2 and PGD2” value is “significant decreases in cellular AA levels and a corresponding reduction in PGE2 and PGD2”. At DAGLB [1] (5 mg/kg, i.p.), the “time to complete inhibition of DAGLB” value was “within the first hour”. For the same molecule, on DAGLB [1] (i.p.), the “dose (as low as) giving complete inactivation of DAGLB in peritoneal macrophages” value turned out to be 0.5 mg/kg. In addition, the inhibition at 5 mg/kg on DAGLB [1] (mouse, ip, read-out: persistent inhibition of DAGLB after 16 hours) is about 90%. At DAGLB [2], this molecule yielded a half-inhibitory concentration (IC50) of 14 nM. In assay [3], the PGD2 level entry was “remained undetectable” and the “change in PGE2” value is “significant decrease in PGE2”. Further, the “off-target activity / selectivity against other serine hydrolases” value in assay [4] is “improved selectivity against FAAH, MGLL, and ABHD11”. Also, in assay [5], the off-target activities result was “carboxylesterases (Ces3 and Ces2g)”.

As to `COc1ccc(-c2ccc(-c3cn(C(=O)N4CCCCC4c4ccccc4)nn3)cc2)cc1` (centres unmarked) [KT195], in the assay on peritoneal macrophages, the “change in 2-AG” value is reported as “no observable changes”; the “change in cellular AA, PGE2 and PGD2” value is given as “None of these effects were observed”. For the same molecule, the “duration / time-course of DAGLB inhibition” value on DAGLB [1] (5 mg/kg, i.p., about 1 to 16 hours) is recorded as “no evidence of DAGLB inhibition during the entire time-course of treatment”. Further, the “dose (as low as) giving complete inactivation of DAGLB in peritoneal macrophages” value on DAGLB [1] (i.p.) was over 10 mg/kg. The “activity against DAGLB in Neuro2A cells” value on DAGLB [2] is “negligible activity against DAGLB”. In assay [3], the PGD2 level entry is “remained undetectable” and the “change in PGE2” value was “not observed”. In addition, the “off-target activity / selectivity against other serine hydrolases” value in assay [4] is listed as “completely inactivated ABHD6”. Moreover, the off-target activities result in assay [5] is listed as “also inhibited”.
